The values that follow come from patent publication EP0462621A2, “Use of particular compounds for manufacture of pharmaceutical formulations for treatment against various parasites, mycoplasmas, other indications and other infections” (Prendergast, Patrick Thomas, priority 1990, dated 1991).

Each structure is given as a SMILES string.

Test [1] has as its system T. cruzi. The test is described as follows: T. cruzi mouse model, in-vivo. The text has this:
In-vitro and in-vivo models were used to test activities of a selection of many compounds. Those activities are summarized in Tables 1-3, showing variation between systems and species. Activities measured in the MP mo and HM mo models have shown the best correlation with results obtained in hamster and mouse models.

For test [2], the system named is T. cruzi. The test is described as follows: T. cruzi intracellular amastigote (AM) in-vitro screen. Format: cell-based.
Protocol: Dividing populations can be cultivated in muscle cells, fibroblasts and macrophages, following infection with trypomastigotes. After the initial infection, there is normally a period of 4-5 days during which the amastigotes divide before transforming, via the epimastigote stage, back to trypomastigotes which escape from the cell. Drug activity is measured during this 4-5 day period. A dividing host cell population, low infection rate, and the presence of trypomastigotes in the overlay can complicate the interpretation of results.
Intracellular amastigote models can use a range of muscle (skeletal and cardiac) and fibroblast (e.g. HeLa, HePa) cell lines, macrophages, and chick embryo cells. […] To overcome the problems of overgrowth of the monolayer and a low percentage of infected cells, often associated with the use of cell lines, irradiated rat L6 myoblasts are used.
For test [3], the system named is T. cruzi. The test is described as follows: T. cruzi trypomastigote (TRY) in-vitro screen. Format: cell-based.
Protocol: (§1) In-vitro chemotherapy screens have for many years used models involving three stages of the T. cruzi life cycle: • (1) Epimastigote. Dividing populations are easily cultivated in a range of defined and semi-defined media, but are equivalent to a vector stage of the life cycle. • (2) Trypomastigote. These are isolated from a rodent host and can be maintained as a non-dividing population for 24-48 h in media. • (3) Amastigote. Dividing populations can be cultivated in muscle cells, fibroblasts and macrophages, following infection with trypomastigotes. After the initial infection, there is normally a period of 4-5 days during which the amastigotes divide before transforming, via the epimastigote stage, back to trypomastigotes which escape from the cell. Drug activity is measured during this 4-5 day period. A dividing host cell population, low infection rate, and the presence of trypomastigotes in the overlay can complicate the interpretation of results.
Test [4] has as its system T. cruzi. The test is described as follows: T. cruzi epimastigote (EPI) in-vitro screen. Format: cell-based.
Protocol: as §1

For the compound `CC1CS(=O)(=O)CCN1/N=C/c1ccc([N+](=O)[O-])o1` (centres unmarked) [Nifurtimox, nifurtimox], the “activity, mouse model” value with T. cruzi [1] (T. cruzi strain CL) is “++ and +”; in the test on T. cruzi [1] (T. cruzi strain Sonya) it was “+”; in the test with T. cruzi [1] (T. cruzi strain Tu), “+”; in the test on T. cruzi [1] (T. cruzi strain WBH), “++”; with T. cruzi [1] (T. cruzi strain Y) it was “++ and +”. Besides, the “activity, intracellular AM” value with T. cruzi [2] (T. cruzi strain Sonya) is “++(Y,WBH, Sonya)”; in the test with T. cruzi [2] (T. cruzi strain WBH), “++(Y,WBH, Sonya)”; with T. cruzi [2] (T. cruzi strain Y) it was “++(Y,WBH, Sonya)”.
Regarding `O=C(Cn1ccnc1[N+](=O)[O-])NCc1ccccc1` [Benznidazole, benznidazole, reference compound], the “activity, TRY” value with T. cruzi [3] (T. cruzi strain Sonya) and with T. cruzi [3] (T. cruzi strain Y) was “++(Y,Sonya)” throughout. Besides, the “activity, mouse model” value was “+” with T. cruzi [1] (T. cruzi strain Sonya) and “++” in the test with T. cruzi [1] (T. cruzi strain Y). The “activity, EPI” value is “++(Y,MR, Sonya)” in the test on T. cruzi [4] (T. cruzi strain MR); “++(Y,MR, Sonya)” in the test on T. cruzi [4] (T. cruzi strain Sonya); “++(Y,MR, Sonya)” in the test with T. cruzi [4] (T. cruzi strain Y). The “activity, intracellular AM” value in the test on T. cruzi [2] (T. cruzi strain Sonya) and with T. cruzi [2] (T. cruzi strain Y) was “++(Y,Sonya)” throughout.
